Data published in patent publication US20150246024A1 (priority 2012, published 2015).
≈ marks a conversion by molar mass, not a printed value. Where “and” joins values, the source holds several entries; their conditions need not be identical. Equal values may be shown once. Entries after “also recorded” stand apart in the source; their conditions may differ.

What was measured:
[1] = tested on: B. anthracis Sterne; format: cell-based
[2] = tested on: S. aureus RN4220; assay: Growth of S. aureus culture with sub-lethal compound (OD600); conditions: until control culture OD600 1.0
[3] = tested on: S. aureus RN4220 colony isolates from gradient plates with 10-200 μM compound 1771; assay: Susceptibility of colony isolates from compound 1771 gradient plates; format: cell-based
[4] = tested on: C. difficile R20291; assay: Growth inhibition assay (MIC/IC50), 96-well; format: cell-based
[5] = tested on: E. faecalis - VRE V583; assay: microbe, parasite or virus in culture; format: cell-based; conditions: 37° C., 18-22 hours, OD600
[6] = tested on: B. anthracis Sterne; assay: microbe, parasite or virus in culture; format: cell-based; conditions: 37° C., 18-22 hours, OD600
[7] = target: extracellular S. aureus LtaS (eLtaS) (Staphylococcus aureus, UniProt Q2G093); format: binding; conditions: 200 μM compound in mobile phase
[8] = tested on: E. faecium TX0016; format: cell-based
[9] = tested on: S. aureus - MRSA USA300; assay: microbe, parasite or virus in culture; format: cell-based; conditions: 37° C., 18-22 hours, OD600
[10] = target: eLtaS (Staphylococcus aureus, UniProt Q2G093); assay: eLtaS-mediated cleavage of NBD-PGC6 to NBD-DAGC6; format: biochemical, S. aureus; conditions: 100 μM compound, 6 hours, 37° C.
Description: FIG. 10. Compound 1771 inhibits eLtaS binding to and cleavage of phosphatidylglycerol (PG) in vitro. Using NBD-PGC6 with 6 carbon acyl chains cleavage of 2 nmol substrate by 2 nmol eLtaS was detectable after 6 hours incubation at 37° C. Chloroform extraction separated non-hydrolyzed NBD-PGC6 (aqueous phase—AP) from the hydrophobic reaction product nitro-benzoxadiazole diacylglycerol (NBD-DAGC6), which segregated into the organic phase (OP). Both phases were analyzed by normal-phase HPLC on a diol column (solid line). Elution profiles were monitored by fluorescence (excitation at 460 nm, emission at 534 nm). Identity of peak fractions was confirmed by mass spectrometry. Addition of 100 μM compound 1771 blocked NBD-DAGC6 production by eLtaS (dashed line).
We used size exclusion HPLC with BioBasic SEC300 column equilibrated with 20 nmol nitro-benzoxadiazole glycerol-phosphate (NBD-GP) to measure binding of enzyme to substrate. Chromatography of 2 nmol eLtaS on BioBasic SEC300 column led to the elution of enzyme.NBD-GP complex and absorbance at 460 nm (FIG. 5). […]

[11] = tested on: E. faecium TX0016; format: cell-based; remark: listed apart in the source
[12] = tested on: B. anthracis Sterne; format: cell-based; conditions: 5 μM compound, liquid culture
[13] = tested on: C. difficile JIR8094; assay: Growth inhibition assay (MIC/IC50), 96-well; format: cell-based; conditions: sigmoidal fit
[14] = tested on: E. faecium - VRE TX0016; assay: microbe, parasite or virus in culture; format: cell-based; conditions: 37° C., 18-22 hours, OD600
[15] = tested on: C. difficile UK1; assay: Growth inhibition assay (MIC/IC50), 96-well; format: cell-based
[16] = tested on: B. anthracis LtaS2BA expressed in E. coli; format: cell-based; conditions: 200 μM compound
[17] = target: Recombinant S. aureus LtaSSA expressed in E. coli (Staphylococcus aureus, UniProt Q2G093); format: cell-based
[18] = tested on: E. coli; format: cell-based
[19] = Half-life of compound in mice (blood, HPLC, mass spectrometry); format: in vivo; conditions: 32 mg/kg intraperitoneal
Description: The therapeutic impact of compound 1771 during infection was examined. First, we evaluated the half-life of compound 1771 in vivo. Animals received intraperitoneal injections with 32 mg/kg of compound. The blood of three animals was drawn 1, 6 and 12 hours following intraperitoneal injections and the compound was extracted with methanol and chloroform, separated by reverse phase HPLC and subjected to mass spectrometry (data not shown). […] The conversion occurred between 3 and 6 hours. To evaluate, the efficacy of compound 1771, we used a mouse model of staphylococcal sepsis. Animals received intraperitoneal injections with 32 mg/kg of compound in 12-hour intervals. Treatment was initiated 24 hours prior to challenge and terminated at 72 hours post infection.
To examine the therapeutic value of compound 1771, we evaluated its half-life in mice. Animals received a single intraperitoneal injection of 32 mg/kg compound 1771. The blood of three animals was drawn 1, 6 and 12 hours following 1771 injection and serum samples were extracted with methanol and chloroform, separated by reversed-phase HPLC and subjected to mass spectrometry. […] Full conversion of compound 1771 into its two cleavage fragments occurred between 3 and 6 hours following injection. […]

[20] = tested on: S. aureus RN4220; format: cell-based
[21] = tested on: B. cereus G9142; format: cell-based
[22] = tested on: LTA production in S. aureus; assay: Inhibition of LTA synthesis in S. aureus (immunoblot)
[23] = tested on: C. difficile CD196; assay: Growth inhibition assay (MIC/IC50), 96-well; format: cell-based
[24] = tested on: B. anthracis Ames; format: cell-based; conditions: 37° C., 18-22 hours, OD600
[25] = tested on: E. faecalis V583; format: cell-based
[26] = tested on: S. aureus RN4220 (MSSA); assay: microbe, parasite or virus in culture; format: cell-based; conditions: 37° C., 18-22 hours, OD600
[27] = tested on: E. faecalis V583; format: cell-based; remark: listed apart in the source
[28] = tested on: C. perfringens SM101; format: cell-based; conditions: nitrogen atmosphere, 37° C., 18-22 hours
[29] = tested on: S. aureus RN4220; format: cell-based; remark: listed apart in the source

Chain of eLtaS (Q2G093 218-646): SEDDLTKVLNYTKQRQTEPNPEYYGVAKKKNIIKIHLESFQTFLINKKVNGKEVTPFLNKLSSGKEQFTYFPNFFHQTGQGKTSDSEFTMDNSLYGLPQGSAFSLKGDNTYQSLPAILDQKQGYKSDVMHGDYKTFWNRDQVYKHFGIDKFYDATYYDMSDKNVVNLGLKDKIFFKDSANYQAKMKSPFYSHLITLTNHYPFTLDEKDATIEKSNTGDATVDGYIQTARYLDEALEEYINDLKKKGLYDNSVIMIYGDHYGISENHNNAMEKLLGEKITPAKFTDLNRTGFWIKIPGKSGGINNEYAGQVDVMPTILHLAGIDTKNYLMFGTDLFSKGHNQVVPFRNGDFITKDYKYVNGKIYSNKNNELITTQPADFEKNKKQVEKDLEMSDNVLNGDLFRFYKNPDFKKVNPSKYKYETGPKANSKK
Chain of extracellular S. aureus LtaS (eLtaS) (Q2G093 218-646): as above
Chain of Recombinant S. aureus LtaSSA expressed in E. coli (Q2G093 whole entry): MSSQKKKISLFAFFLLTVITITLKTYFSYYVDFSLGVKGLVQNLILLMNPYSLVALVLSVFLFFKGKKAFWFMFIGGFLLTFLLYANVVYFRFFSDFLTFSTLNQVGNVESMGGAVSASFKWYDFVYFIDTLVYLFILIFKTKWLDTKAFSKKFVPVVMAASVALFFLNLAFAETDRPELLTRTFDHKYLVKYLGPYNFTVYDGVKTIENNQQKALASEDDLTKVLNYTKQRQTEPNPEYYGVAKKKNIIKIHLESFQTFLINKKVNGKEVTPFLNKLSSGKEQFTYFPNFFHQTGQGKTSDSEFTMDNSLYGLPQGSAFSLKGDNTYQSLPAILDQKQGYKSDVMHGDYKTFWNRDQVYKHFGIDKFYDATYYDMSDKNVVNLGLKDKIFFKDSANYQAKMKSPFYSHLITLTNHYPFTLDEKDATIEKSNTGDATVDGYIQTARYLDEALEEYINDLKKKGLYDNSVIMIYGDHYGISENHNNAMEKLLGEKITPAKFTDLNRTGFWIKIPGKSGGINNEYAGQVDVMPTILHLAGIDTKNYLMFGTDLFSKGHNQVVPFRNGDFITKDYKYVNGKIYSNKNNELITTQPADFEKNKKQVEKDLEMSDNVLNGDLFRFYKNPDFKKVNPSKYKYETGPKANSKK

In the case of `O=C(COC(=O)Cc1coc2ccc3ccccc3c12)Nc1nnc(-c2ccccc2)o1` [Compound 1771, 2-oxo-2-[(5-phenyl-1,3,4-oxadiazol-2-yl)amino]ethylnaphtho[2,1-b]furan-1-ylacetate], the “Cell envelope diameter Δ (1771 vs mock)” value ([1]; 8 μM compound) is reported as 6.3 (±1.0) nm, the Cell envelope diameter ([1]; BHI agar with 8 μM compound, mean of 124 (SEM)) is reported as 46.8 (±0.7) nm and the “reduced growth of staphylococci” value ([2]; 2 μM compound) is reported as 50%. For the same compound, the “reduced growth of staphylococci” value ([2]; 5 μM compound) was 75%, the IC50 ([3]; Isolate 1) was 8.7 µM and the MIC ([3]; Isolate 1) was 18.8 µM (≈ 8.04 µg/mL). For the same compound, the IC50 ([3]; Isolate 2) was 9.2 µM, the MIC ([3]; Isolate 2) was 18.8 µM (≈ 8.04 µg/mL) and the IC50 ([3]; Isolate 3) was 12.2 µM. It also gave an MIC ([3]; Isolate 3) of 18.8 µM (≈ 8.04 µg/mL), an MIC [4] of 6.2 µM (≈ 2.65 µg/mL) and an IC50 ([4]; sigmoidal fit) of 5.3 µM. The MIC [5] was 50.0 µM (≈ 21.4 µg/mL), the IC50 ([5]; sigmoidal fit, read-out: IC50) was 27.3 µM and the MIC [6] was 12.5 µM (≈ 5.34 µg/mL). The IC50 ([6]; sigmoidal fit, read-out: IC50) was 7.7 µM and 6.53 µM, the “Co-elution of phosphatidylglycerol with eLtaS, reduction” value [7] was “more than 95%” and the “elution of NBD-PG.eLtaS complex” value [7] was “abolished”. For the same compound, the Cell envelope diameter [8] was 32.4 (±0.5) nm, the “Cell envelope diameter Δ (1771 vs mock)” value [8] was 9.6 (±0.6) nm and the MIC [9] was 50.0 µM (≈ 21.4 µg/mL). The IC50 ([9]; sigmoidal fit, read-out: IC50) was 14 µM, the “NBD-DAGC6 production by eLtaS” value [10] was “blocked; also recorded: inhibited” and the Cell clusters/all cocci [11] was 1/295. The “chain length of vegetative bacilli” value [12] was “increased chain length; also recorded: formed longer chains”, the IC50 [13] was 8.2 µM and the MIC [14] was 50.0 µM (≈ 21.4 µg/mL). The IC50 ([14]; sigmoidal fit, read-out: IC50) was 23.3 µM, the MIC [15] was 6.2 µM (≈ 2.65 µg/mL) and the IC50 ([15]; sigmoidal fit) was 3.3 µM. The “LTA production by LtaS2BA” value [16] was “completely abolished; also recorded: abrogated”, the “production of LTA promoted by plasmid encoded LtaSSA” value [17] was “abrogated” and the “growth of E. coli” value [18] was “not affected; also recorded: did not affect the growth”. For the same compound, the stability in mice [19] was “unstable in mice with rapid loss of activity”, the Cell envelope diameter [20] was 38.8 (±0.9) nm and the “Cell envelope diameter Δ (1771 vs mock)” value [20] was 7.5 (±1.1) nm. The IC50 [21] was 10.7 µM, the MIC [21] was 25.0 µM (≈ 10.7 µg/mL) and the LtaS immunoreactive signals ([22]; 5 μM compound) was “slightly unstable; also recorded: reduced”. The “abundance of sortase A (SrtA), control” value ([22]; 2 or 5 μM compound) was “remained unaffected; also recorded: not affected”, the “LTA production (immunoblot α-LTA)” value ([22]; sub-lethal concentrations of compound) was “affect the production of LTA; also recorded: reduced the abundance of LTA” and the MIC [23] was 6.5 µM (≈ 2.78 µg/mL). It also gave an IC50 ([23]; sigmoidal fit) of 4.3 µM, an MIC [24] of 12.5 µM (≈ 5.34 µg/mL) and an IC50 ([24]; sigmoidal fit) of 7.6 µM. For the same compound, the Cell clusters/all cocci [25] was 2/496, the MIC [26] was 12.5 µM (≈ 5.34 µg/mL) and the IC50 ([26]; sigmoidal fit, read-out: IC50) was 7.48 µM and 7.3 µM. For the same compound, the Cell envelope diameter [27] was 31.6 (±0.6) nm, the “Cell envelope diameter Δ (1771 vs mock)” value [27] was 7.8 (±0.7) nm and the MIC [28] was 6.2 µM (≈ 2.65 µg/mL). For the same compound, the IC50 ([28]; sigmoidal fit) was 2.5 µM and the Cell clusters/all cocci [29] was 3/387.
